From patent publication US10851067B2, “Kv7 channel activators compositions and methods of use” (Knopp Biosciences LLC, priority 2018, dated 2020)

Biological target: Kv7.2/7.3 (Homo sapiens, UniProt O43525+O43526)
Assay: Kv7.2/7.3 Activation Assay, QPatch single concentration screen
Assay type: cell-based
Parameters: host or cells: HEK cells, tetracycline-inducible expression; key: 1.2-2.9 (+); 3-3.9 (++); >4 (+++) fold increase over baseline; O represents open channel at holding potential
Conditions: Kv7.2/Kv7.3 co-expressing HEK cells, compound concentration 3 μM, steady-state current at end of 2 s pulse to −30 mV
In short: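 Tetracycline-induced HEK cells expressing human Kv7.2/7.3, recorded 24 h post-induction by automated planar patch clamp. From −80 mV, 2 s steps to −30 mV then 100 ms to −120 mV; compound tested at 3 μM (0.1% DMSO). Steady-state current at end of −30 mV step gives fold increase over baseline.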

| SMILES | Kv7.2/7.3 Activity: increase over baseline in current |
| --- | --- |
| CC(C)(O)c1cc(F)c2nc(NC(=O)CSC(F)(F)F)n(C3CCC3)c2c1 [Example 413, N-(1-cyclobutyl-4-fluoro-6-(2-hydroxypropan-2-yl)-1H-benzo[d]imidazol-2-yl)-2-((trifluoromethyl)thio)acetamide] | +++ (>4 (+++) fold increase over baseline) |
| COc1c(Cl)c(Cl)c(Cl)c2nc(NC(=O)CC(C)(C)C)n(C3CCC3)c12 [Example 414, 3,3-dimethyl-N-(4,5,6-trichloro-1-cyclobutyl-7-methoxy-1H-benzo[d]imidazol-2-yl)butanamide] | ++ (3-3.9 (++)) |
| CC(C)(C)CC(=O)Nc1nc2c(F)cc(C3(O)CCC3)cc2n1C1CCC1 [Example 421, N-(1-cyclobutyl-4-fluoro-6-(1-hydroxycyclobutyl)-1H-benzo[d]imidazol-2-yl)-3,3-dimethylbutanamide] | +++ (>4 (+++) fold increase over baseline) |
| CC1(n2c(NC(=O)CC(O)(CF)CF)nc3ccc(OC(F)F)c(F)c32)CCC1 [Example 423, N-(6-(difluoromethoxy)-7-fluoro-1-(1-methylcyclobutyl)-1H-benzo[d]imidazol-2-yl)-4-fluoro-3-(fluoromethyl)-3-hydroxybutanamide] | + (1.2-2.9 (+)) |
| CC(C)(C)CC(=O)Nc1nc2cc(F)c(C3(O)CCC3)c(F)c2n1C1CCC1 [Example 424, N-(1-cyclobutyl-5,7-difluoro-6-(1-hydroxycyclobutyl)-1H-benzo[d]imidazol-2-yl)-3,3-dimethylbutanamide] | O |
| CC(C)(CC(=O)Nc1nc2cccc(C#N)c2n1C1(C)CCC1)C1CC1 [Example 426, N-(7-cyano-1-(1-methylcyclobutyl)-1H-benzo[d]imidazol-2-yl)-3-cyclopropyl-3-methylbutanamide] | +++ (>4 (+++) fold increase over baseline) |
| COc1ccc2nc(NC(=O)CC(C)(C)C)n(C3CCC3)c2c1F [Example 429, N-(1-cyclobutyl-7-fluoro-6-methoxy-1H-benzo[d]imidazol-2-yl)-3,3-dimethylbutanamide] | +++ (>4 (+++) fold increase over baseline) |
| CC(C)(C)CC(=O)Nc1nc2ccc(C3(F)COC3)cc2n1C1CCC1 [Example 432, N-(1-cyclobutyl-6-(3-fluorooxetan-3-yl)-1H-benzo[d]imidazol-2-yl)-3,3-dimethylbutanamide] | +++ (>4 (+++) fold increase over baseline) |
| CC(C)(CC(=O)Nc1nc2ccc(OC(F)F)cc2n1C1(C)CCC1)C1CC1 [Example 434, 3-cyclopropyl-N-(6-(difluoromethoxy)-1-(1-methylcyclobutyl)-1H-benzo[d]imidazol-2-yl)-3-methylbutanamide] | +++ (>4 (+++) fold increase over baseline) |
| CC(C)(O)c1ccc2nc(NC(=O)Cc3cccc(F)c3)n(C3(C)CCC3)c2c1 [Example 435, 2-(3-fluorophenyl)-N-(6-(2-hydroxypropan-2-yl)-1-(1-methylcyclobutyl)-1H-benzo[d]imidazol-2-yl)acetamide] | O |
| CC(C)(C)CC(=O)Nc1nc2ccc(Cl)c(C#N)c2n1C1CCC1 [Example 439, N-(6-chloro-7-cyano-1-cyclobutyl-1H-benzo[d]imidazol-2-yl)-3,3-dimethylbutanamide] | + (1.2-2.9 (+)) |
| COC(=O)Cc1c(F)ccc2nc(NC(=O)CC(C)(C)C)n(C3CCC3)c12 [Example 447, methyl 2-(1-cyclobutyl-2-(3,3-dimethylbutanamido)-6-fluoro-1H-benzo[d]imidazol-7-yl)acetate] | +++ (>4 (+++) fold increase over baseline) |
| [2H]C([2H])([2H])C(CC(=O)Nc1nc2ccc(C(C)(C)O)cc2n1C1CCC1)(C([2H])([2H])[2H])C([2H])([2H])[2H] [Example 448, N-(1-cyclobutyl-6-(2-hydroxypropan-2-yl)-1H-benzo[d]imidazol-2-yl)-3,3-bis(methyl-d3)butanamide] | ++ (3-3.9 (++)) |
| CC(C)(C)CC(=O)Nc1nc2ccc(C3(O)CCC3)c(F)c2n1C1CCC1 [Example 451, N-(1-cyclobutyl-7-fluoro-6-(1-hydroxycyclobutyl)-1H-benzo[d]imidazol-2-yl)-3,3-dimethylbutanamide] | O |
| CC(C)(CC(=O)Nc1nc2cc(F)cc(F)c2n1C1CCC1)C(F)(F)F [Example 453, N-(1-cyclobutyl-5,7-difluoro-1H-benzo[d]imidazol-2-yl)-4,4,4-trifluoro-3,3-dimethylbutanamide] | ++ (3-3.9 (++)) |
| CN(C)c1ccc2nc(NC(=O)CC(C)(C)C)n(C3CCC3)c2c1F [Example 454, N-(1-cyclobutyl-6-(dimethylamino)-7-fluoro-1H-benzo[d]imidazol-2-yl)-3,3-dimethylbutanamide] | +++ (>4 (+++) fold increase over baseline) |

Continued, values first:

| Kv7.2/7.3 Activity: increase over baseline in current | SMILES |
| --- | --- |
| ++ (3-3.9 (++)) | CC(C)(C)CC(=O)Nc1nc2ccc(F)cc2n1C1CCC1 [Example 417, N-(1-cyclobutyl-6-fluoro-1H-benzo[d]imidazol-2-yl)-3,3-dimethylbutanamide] |
| + (1.2-2.9 (+)) | CC1(n2c(NC(=O)CC(C)(C)C(F)(F)F)nc3c(OC(F)F)cc(C#N)cc32)CCC1 [Example 419, N-(6-cyano-4-(difluoromethoxy)-1-(1-methylcyclobutyl)-1H-benzo[d]imidazol-2-yl)-4,4,4-trifluoro-3,3-dimethylbutanamide] |
| + (1.2-2.9 (+)) | CC(C)(C)CC(=O)Nc1nc2c(F)cc(C#N)cc2n1C(C)(C)C [Example 420, N-(1-(tert-butyl)-6-cyano-4-fluoro-1H-benzo[d]imidazol-2-yl)-3,3-dimethylbutanamide] |
| ++ (3-3.9 (++)) | CC(C)(C)CC(=O)Nc1nc2ccc(C(C)(C)O)cc2n1C12CC(C1)C2 [Example 425, N-(1-(bicyclo[1.1.1]pentan-1-yl)-6-(2-hydroxypropan-2-yl)-1H-benzo[d]imidazol-2-yl)-3,3-dimethylbutanamide] |
| ++ (3-3.9 (++)) | CC(C)(CC(=O)Nc1nc2ccc(OC(F)F)cc2n1C(C)(C)C)C1CC1 [Example 427, N-(1-(tert-butyl)-6-(difluoromethoxy)-1H-benzo[d]imidazol-2-yl)-3-cyclopropyl-3-methylbutanamide] |
| ++ (3-3.9 (++)) | CC(C)(CC(=O)Nc1nc2c(F)cc(C#N)cc2n1C12CC(C1)C2)C(F)(F)F [Example 431, N-(1-(bicyclo[1.1.1]pentan-1-yl)-6-cyano-4-fluoro-1H-benzo[d]imidazol-2-yl)-4,4,4-trifluoro-3,3-dimethylbutanamide] |
| ++ (3-3.9 (++)) | COc1cc(F)c2nc(NC(=O)CC(C)(C)C(F)(F)F)n(C3(C)CCC3)c2c1 [Example 433, 4,4,4-trifluoro-N-(4-fluoro-6-methoxy-1-(1-methylcyclobutyl)-1H-benzo[d]imidazol-2-yl)-3,3-dimethylbutanamide] |
| ++ (3-3.9 (++)) | CC(C)(C)CC(=O)Nc1nc2cc(F)cc(C#N)c2n1C1(C)CCC1 [Example 436, N-(7-cyano-5-fluoro-1-(1-methylcyclobutyl)-1H-benzo[d]imidazol-2-yl)-3,3-dimethylbutanamide] |
| ++ (3-3.9 (++)) | CC(C)(C)CC(=O)Nc1nc2cc(F)c(C#N)cc2n1C1(C)CCC1 [Example 437, N-(6-cyano-5-fluoro-1-(1-methylcyclobutyl)-1H-benzo[d]imidazol-2-yl)-3,3-dimethylbutanamide] |
| O | CC(C)(C)CC(=O)Nc1nc2c(F)cc(C(C)(C)O)c(F)c2n1C1CCC1 [Example 438, N-(1-cyclobutyl-4,7-difluoro-6-(2-hydroxypropan-2-yl)-1H-benzo[d]imidazol-2-yl)-3,3-dimethylbutanamide] |
| + (1.2-2.9 (+)) | CC(C)(C)CC(=O)Nc1nc2ccc(C(C)(C)O)cc2n1CC(F)(F)F [Example 440, N-(6-(2-hydroxypropan-2-yl)-1-(2,2,2-trifluoroethyl)-1H-benzo[d]imidazol-2-yl)-3,3-dimethylbutanamide] |
| ++ (3-3.9 (++)) | C[C@H](C(=O)Nc1nc2c(F)cc(C(C)(C)O)cc2n1C1CCC1)C(C)(C)C [Example 443, (S)-N-(1-cyclobutyl-4-fluoro-6-(2-hydroxypropan-2-yl)-1H-benzo[d]imidazol-2-yl)-2,3,3-trimethylbutanamide] |
| ++ (3-3.9 (++)) | CC(C)(C)n1c(NC(=O)CC(C)(C)C(F)(F)F)nc2ccc(C#N)c(F)c21 [Example 444, N-(1-(tert-butyl)-6-cyano-7-fluoro-1H-benzo[d]imidazol-2-yl)-4,4,4-trifluoro-3,3-dimethylbutanamide] |
| ++ (3-3.9 (++)) | CC(C)(C)CC(=O)Nc1nc2c(F)cc(C(C)(O)C3CC3)cc2n1C1CCC1 (centres unmarked) [Example 445, N-(1-cyclobutyl-6-(1-cyclopropyl-1-hydroxyethyl)-4-fluoro-1H-benzo[d]imidazol-2-yl)-3,3-dimethylbutanamide] |
| ++ (3-3.9 (++)) | CC(C)(C)CC(=O)Nc1nc2cc(F)ccc2n1C1CCC1 [Example 449, N-(1-cyclobutyl-5-fluoro-1H-benzo[d]imidazol-2-yl)-3,3-dimethylbutanamide] |
| + (1.2-2.9 (+)) | CC(C)(C)CC(=O)Nc1nc2cc(C(C)(C)O)c(C(F)(F)F)cc2n1C1CCC1 [Example 450, N-(1-cyclobutyl-5-(2-hydroxypropan-2-yl)-6-(trifluoromethyl)-1H-benzo[d]imidazol-2-yl)-3,3-dimethylbutanamide] |
